Measured values reported in patent publication US7396837B2, “Antitumoral analogs of lamellarins” (Pharma Mar, S.A.U., priority 2002, dated 2008).
Like-named read-outs stand apart in the source and are kept apart here.

What was measured:
Type in all cases: cell-based
LoVo = assay: SRB colorimetric cell growth inhibition assay, LoVo; details: Homo sapiens, LoVo; for GI50: GI=growth inhibition, read-out: GI50 LOVO; for CC50: cell killing (cytotoxic effect); for IC (TGI): total growth inhibition (cytostatic effect), read-out: TGI LOVO
Method in brief: (§1)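 In this cytotoxicity screen, compound stays in contact with the cultured human cancer cells without washout; sulforhodamine B binding gives the measure of cell number, and endpoints separate growth inhibition from cytostasis (TGI) and killing (LC).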

IGROV = assay: SRB colorimetric cell growth inhibition assay, IGROV; details: Homo sapiens, IGROV; for GI50: GI=growth inhibition, read-out: GI50 IGROV; for CC50: LC=cell killing (cytotoxic effect); for IC (TGI): TGI=total growth inhibition (cytostatic effect), read-out: TGI IGROV
Method in brief: as §1

H-MEC-1 = assay: SRB colorimetric cell growth inhibition assay, H-MEC-1; details: Homo sapiens, HMEC-1, H-MEC-1; for GI50: GI=growth inhibition; for IC (TGI): TGI=total growth inhibition (cytostatic effect), read-out: TGI H-MEC-1
Method in brief: (§2)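 Growth and viability quantified by sulforhodamine B staining in 96-well microplates. Triplicate wells give mean ± SD; derived endpoints are GI, TGI (cytostatic) and LC (cytotoxic).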

[1] = as above; details: human
Method in brief: as §2

K-562 = assay: SRB colorimetric cell growth inhibition assay, K-562; details: Homo sapiens; for GI50: GI=growth inhibition, read-out: GI50 K-562; for CC50: cell killing (cytotoxic effect); for IC (TGI): total growth inhibition (cytostatic effect), read-out: TGI K-562
Method in brief: as §1

LoVo-Dox = assay: SRB colorimetric cell growth inhibition assay, LoVo-Dox (MDR); details: Homo sapiens; for GI50: GI=growth inhibition, read-out: GI50 LOVO-DOX; for CC50: cell killing (cytotoxic effect); for IC (TGI): total growth inhibition (cytostatic effect), read-out: TGI LOVO-DOX
Method in brief: as §1

DU-145 = assay: SRB colorimetric cell growth inhibition assay, DU-145; details: Homo sapiens; for GI50: GI=growth inhibition, read-out: GI50 DU-145; for CC50: LC=cell killing (cytotoxic effect); for IC (TGI): TGI=total growth inhibition (cytostatic effect), read-out: TGI DU-145
Method in brief: as §1

SKOV-3 = assay: SRB colorimetric cell growth inhibition assay, SKOV-3; details: Homo sapiens; for GI50: SK-OV-3, SKOV-3, GI=growth inhibition, read-out: GI50 SKOV-3; for IC (TGI): TGI=total growth inhibition (cytostatic effect), read-out: TGI SKOV-3
Method in brief: as §2

SK-MEL-28 = assay: SRB colorimetric cell growth inhibition assay, SK-MEL-28; details: Homo sapiens; for GI50: GI=growth inhibition, read-out: GI50 MEL-28; for CC50: LC=cell killing (cytotoxic effect); for IC (TGI): TGI=total growth inhibition (cytostatic effect), read-out: TGI MEL-28
Method in brief: as §1

SK-BR-3 = assay: SRB colorimetric cell growth inhibition assay, SK-BR-3; details: Homo sapiens; for GI50: GI=growth inhibition, read-out: GI50 SK-BR-3; for CC50: LC=cell killing (cytotoxic effect); for IC (TGI): TGI=total growth inhibition (cytostatic effect), read-out: TGI SK-BR-3
Method in brief: as §1

HT-29 = assay: SRB colorimetric cell growth inhibition assay, HT-29; details: Homo sapiens; for GI50: GI=growth inhibition, read-out: GI50 HT-29; for CC50: cell killing (cytotoxic effect); for IC (TGI): total growth inhibition (cytostatic effect), read-out: TGI HT-29
Method in brief: as §1

PANC-1 = assay: SRB colorimetric cell growth inhibition assay, PANC-1; details: Homo sapiens; for GI50: GI=growth inhibition, read-out: GI50 PANC-1; for CC50: cell killing (cytotoxic effect); for IC (TGI): total growth inhibition (cytostatic effect), read-out: TGI PANC-1
Method in brief: as §1

IGROV-ET = assay: SRB colorimetric cell growth inhibition assay, IGROV-ET (ET-743 resistant); details: Homo sapiens; for GI50: GI=growth inhibition, read-out: GI50 IGROV-ET; for CC50: LC=cell killing (cytotoxic effect); for IC (TGI): TGI=total growth inhibition (cytostatic effect), read-out: TGI IGROV-ET
Method in brief: as §1

A-549 = assay: SRB colorimetric cell growth inhibition assay, A-549; details: Homo sapiens; for GI50: GI=growth inhibition, read-out: GI50 A-549; for CC50: cell killing (cytotoxic effect); for IC (TGI): total growth inhibition (cytostatic effect), read-out: TGI A-549
Method in brief: as §1

LNCaP = assay: SRB colorimetric cell growth inhibition assay, LNCaP; details: Homo sapiens, LNCaP; for GI50: GI=growth inhibition, read-out: GI50 LN-caP; for CC50: LC=cell killing (cytotoxic effect); for IC (TGI): TGI=total growth inhibition (cytostatic effect), read-out: TGI LN-caP
Method in brief: as §1

SMILES: COc1cc2ccn3c(c(-c4ccc(OS(=O)(=O)C(F)(F)F)c(OC)c4)c4c5cc(OC)c(OS(=O)(=O)C(F)(F)F)cc5oc(=O)c43)c2cc1OC [Compound 126]
- GI50 (LoVo): 2.56 µM
- CC50 (LoVo; read-out: LC50 LOVO): 12.6 µM
- IC (TGI) (LoVo): 5.68 µM
- GI50 (IGROV): 2.26 µM
- CC50 (IGROV; read-out: LC50 IGROV): 12.6 µM
- IC (TGI) (IGROV): 5.32 µM
- GI50 (H-MEC-1): 0.746 µM
- IC (TGI) (H-MEC-1): 2.25 µM
- CC50 ([1]; H-MEC-1 cells, H-MEC-1, LC=cell killing (cytotoxic effect), read-out: LC50 H-MEC-1): 6.46 µM
- GI50 (K-562; K562, K-562): 2.15 µM
- CC50 (K-562; K562, K-562, read-out: LC50 K-562): 8.69 µM
- IC (TGI) (K-562; K562, K-562): 4.32 µM
- GI50 (LoVo-Dox; LOVO-DOX): 12.9 µM
- CC50 (LoVo-Dox; LOVO-DOX, read-out: LC50 LOVO-DOX): 12.9 µM
- IC (TGI) (LoVo-Dox; LOVO-DOX): 12.9 µM
- GI50 (DU-145; DU-145, DU-145): 2.53 µM
- CC50 (DU-145; DU-145, DU-145, read-out: LC50 DU-145): 12.9 µM
- IC (TGI) (DU-145; DU-145, DU-145): 6.49 µM
- GI50 (SKOV-3): 3.48 µM
- CC50 (SKOV-3; SK-OV-3, SKOV-3, LC=cell killing (cytotoxic effect), read-out: LC50 SKOV-3): 12.9 µM
- IC (TGI) (SKOV-3; SK-OV-3, SKOV-3): 6.98 µM
- GI50 (SK-MEL-28; SK-MEL-28, MEL-28): 2.93 µM
- CC50 (SK-MEL-28; SK-MEL-28, MEL-28, read-out: LC50 MEL-28): 9.48 µM
- IC (TGI) (SK-MEL-28; SK-MEL-28, MEL-28): 5.27 µM
- GI50 (SK-BR-3; SK-BR-3, SK-BR-3): 2.11 µM
- CC50 (SK-BR-3; SK-BR-3, SK-BR-3, read-out: LC50 SK-BR-3): 1.29 µM
- IC (TGI) (SK-BR-3; SK-BR-3, SK-BR-3): 5.36 µM
- GI50 (HT-29; HT-29, HT-29): 3 µM
- CC50 (HT-29; HT-29, HT-29, read-out: LC50 HT-29): 12.9 µM
- IC (TGI) (HT-29; HT-29, HT-29): 9.22 µM
- GI50 (PANC-1; PANC-1, PANC-1): 2.19 µM
- CC50 (PANC-1; PANC-1, PANC-1, read-out: LC50 PANC-1): 12.9 µM
- IC (TGI) (PANC-1; PANC-1, PANC-1): 6.57 µM
- GI50 (IGROV-ET; IGROV-ET): 3.88 µM
- CC50 (IGROV-ET; IGROV-ET, read-out: LC50 IGROV-ET): 12.9 µM
- IC (TGI) (IGROV-ET; IGROV-ET): 7.87 µM
- GI50 (A-549; A549, A-549): 2.98 µM
- CC50 (A-549; A549, A-549, read-out: LC50 A-549): 2.25 µM
- IC (TGI) (A-549; A549, A-549): 5.74 µM
- GI50 (LNCaP; LN-caP): 1.25 µM
- CC50 (LNCaP; LN-caP, read-out: LC50 LN-caP): 6.04 µM
- IC (TGI) (LNCaP; LN-caP): 2.76 µM

SMILES: COc1cc(-c2c3n(c4c(=O)oc5cc(OC(=O)[C@@H]6CCCN6)c(OC)cc5c24)CCc2cc(OC(=O)[C@@H]4CCCN4)c(OC)cc2-3)ccc1OC(=O)[C@@H]1CCCN1 [Compound 134]
- CC50 (LoVo; read-out: LC50 LOVO, LOVO): 8.67 µM
- GI50 (LoVo): 2.05 µM
- IC (TGI) (LoVo): 4.21 µM
- CC50 (IGROV; read-out: LC50 IGROV, IGROV): 6.5 µM
- GI50 (IGROV): 0.943 µM
- IC (TGI) (IGROV): 2.48 µM
- GI50 (H-MEC-1): 2.13 µM
- IC (TGI) (H-MEC-1): 6.51 µM
- CC50 ([1]; LC50 H-MEC-1): 8.81 µM
- GI50 (K-562; K562, K-562): 0.571 µM
- IC (TGI) (K-562; K562, K-562): 4.93 µM
- CC50 (K-562; K562, read-out: LC50 K-562, K-562): 8.81 µM
- GI50 (LoVo-Dox; LOVO-DOX): 0.519 µM
- IC (TGI) (LoVo-Dox; LOVO-DOX): 1.99 µM
- CC50 (LoVo-Dox; read-out: LC50 LOVO-DOX, LOVO-DOX): 7.79 µM
- GI50 (DU-145; DU-145, DU-145): 2.12 µM
- IC (TGI) (DU-145; DU-145, DU-145): 4.47 µM
- CC50 (DU-145; DU-145, read-out: LC50 DU-145, DU-145): 8.81 µM
- GI50 (SKOV-3): 0.739 µM
- CC50 (SKOV-3; SK-OV-3, read-out: LC50 SKOV-3): 4.26 µM
- IC (TGI) (SKOV-3; SK-OV-3, SKOV-3): 1.85 µM
- GI50 (SK-MEL-28; SK-MEL-28, MEL-28): 1.73 µM
- IC (TGI) (SK-MEL-28; SK-MEL-28, MEL-28): 3.23 µM
- CC50 (SK-MEL-28; SK-MEL-28, read-out: LC50 MEL-28, MEL-28): 6.04 µM
- GI50 (SK-BR-3; SK-BR-3, SK-BR-3): 2.1 µM
- IC (TGI) (SK-BR-3; SK-BR-3, SK-BR-3): 4.34 µM
- CC50 (SK-BR-3; SK-BR-3, read-out: LC50 SK-BR-3, SK-BR-3): 8.81 µM
- GI50 (HT-29; HT-29, HT-29): 2.85 µM
- CC50 (HT-29; HT-29, read-out: LC50 HT-29, HT-29): 8.81 µM
- IC (TGI) (HT-29; HT-29): 8.81 µM
- GI50 (PANC-1; PANC-1, PANC-1): 2.17 µM
- IC (TGI) (PANC-1; PANC-1, PANC-1): 4.53 µM
- CC50 (PANC-1; PANC-1, read-out: LC50 PANC-1, PANC-1): 8.81 µM
- GI50 (IGROV-ET; IGROV-ET): 0.482 µM
- IC (TGI) (IGROV-ET; IGROV-ET): 2.14 µM
- CC50 (IGROV-ET; read-out: LC50 IGROV-ET, IGROV-ET): 7.58 µM
- GI50 (A-549; A549, A-549): 2.55 µM
- IC (TGI) (A-549; A549, A-549): 4.93 µM
- CC50 (A-549; A549, read-out: LC50 A-549, A-549): 8.81 µM
- GI50 (LNCaP; LN-caP): 0.458 µM
- IC (TGI) (LNCaP; LN-caP): 1.34 µM
- CC50 (LNCaP; read-out: LC50 LN-caP, LN-caP): 4.16 µM
